Measurements from paper PMC10244465, “Native American ataxia medicines rescue ataxia-linked mutant potassium channel activity via binding to the voltage sensing domain” (Nature Communications, 2023).
Where two headings read alike, the source gives them in different places.

Experiments:
wild-type human Kv1.1 = molecular target: T1, wild-type human Kv1.1 (Homo sapiens, UniProt Q09470); test: Two-electrode voltage clamp of oocytes expressing wild-type Kv1.1; format: cell-based; settings: for effect on Kv1.1 activity: compound 100 µM; for EM (unclamped oocyte membrane potential) / Slope / V0.5 Normalized tail current: in presence of 100 µM compound
T1 construct: expressed in transfected cells; host or cells: Xenopus laevis oocytes injected with cRNA (pTLNx vector)
Text: Wild-type and mutant Kv1 cDNAs were generated (Genscript, Piscataway, NJ) in the pTLNx expression vector. As previously described, we generated cRNA transcripts encoding human Kv1.1 (wild-type and mutant) and Kv1.2, by in vitro transcription using the mMessage mMachine kit (Thermo Fisher Scientific), after vector linearization, from cDNA sub-cloned into plasmids (pTLNx) incorporating Xenopus laevis β-globin 5’ and 3’ UTRs flanking the coding region to enhance translation and cRNA stability. We injected defolliculated stage V and VI Xenopus laevis oocytes (Xenoocyte, Dexter, MI, US) with Kv1 cRNAs (1–5 ng). We incubated the oocytes at 16 °C in ND96 oocyte storage solution containing penicillin and streptomycin, with daily washing, for 2 days prior to two-electrode voltage-clamp (TEVC) recording.
We performed TEVC at room temperature using an OC-725C amplifier (Warner Instruments, Hamden, CT) and pClamp10 software (Molecular Devices, Sunnyvale, CA) 2 days after cRNA injection as described in the section above. For recording, oocytes we placed in a small-volume oocyte bath (Warner) and viewed with a dissection microscope. We sourced chemicals from Sigma. We studied effects of plant extracts and of compounds, solubilized directly in bath solution (in mM): 96 NaCl, 4 KCl, 1 MgCl2, 1 CaCl2, 10 HEPES (pH 7.6). We introduced extracts or compounds into the oocyte recording bath by gravity perfusion at a constant flow of 1 ml per minute for 3 min prior to recording. Pipettes were of 1–2 MΩ resistance when filled with 3 M KCl. We recorded currents in response to voltage pulses between −80 mV and +40 mV at 10 or 20 mV intervals from a holding potential of −80 mV, to yield current-voltage relationships and examine activation kinetics. To calculate the voltage dependence of activation (V0.5), tail currents were recorded at a voltage pulse of −50 mV immediately following prepulse voltages between −80 mV and +40 mV. We analyzed data using Clampfit (Molecular Devices) and Graphpad Prism software (GraphPad, San Diego, CA, USA), stating values as mean ± SEM. We plotted raw or normalized tail currents vs. prepulse voltage and fitted with a single Boltzmann function:1 g=(A1−A2)/1+exp[V1/2−V/Vs]y+A2 where g is the normalized tail conductance, A1 is the initial value at -∞, A2 is the final value at +∞, V1/2 is the half-maximal voltage of activation and Vs the slope factor.

wild-type Kv1.1 = system: wild-type Kv1.1; parameters: method as in PMID 28391996; settings: prepulse current at −50 mV, 10 µM; cited from earlier work
[1] = parameters: method as in earlier work; settings: following massage with lavender oil; cited from earlier work
wild-type human Kv1.2 = molecular target: T2, wild-type human Kv1.2 (Homo sapiens, UniProt P16389); test: Two-electrode voltage clamp of oocytes expressing wild-type Kv1.2; format: cell-based
T2 construct: expressed in transfected cells; host or cells: Xenopus laevis oocytes injected with cRNA (pTLNx vector)
Experimental: We therefore first tested for activity of extracts (diluted 1:50 in bath solution to equal 5 mg plant solid starting material per ml) of each of the three plants on wild-type human Kv1.1 and closely related Kv1.2 expressed in Xenopus laevis oocytes, using manual two-electrode voltage clamp (TEVC). Strikingly, all three extracts altered Kv1 channel activity. […] Pacific ninebark (roots or leaves) had similar effects on Kv1.1 but negligible effects on Kv1.2.
We purchased live Urtica dioica (Common Nettle) from Crimson Sage Nursery (Orleans, CA, USA), cultivated it in Irvine CA, collected the aerial portions (primarily leaves) and then froze them until the day of extraction. We purchased Physocarpus capitatus (Pacific ninebark) live whole plant from Ozark Wildflower Company (Jasper, AR, USA) and separated the roots and aerial parts before extraction of each. We homogenized plant samples using a bead mill with porcelain beads in batches in 50 ml tubes (Omni International, Kennesaw, GA, United States). We purchased certified organic tree bark powders from Mountain Rose Herbs (Eugene, OR, USA) and dry raw Sophora japonica (fine pellets) from Teriya (People’s Republic of China). We purchased bladderwrack kelp extract capsules from Terra Vita (Brampton, Ontario, Canada) and discarded the outer capsule before extraction. We resuspended all plant powders and homogenates in 80% methanol/20% water (100 ml per 5 g solid) and then incubated for 48 h at room temperature, occasionally inverting the bottles to resuspend the extracts. We next filtered the extracts through Whatman filter paper #1 (Whatman, Maidstone, UK), and then removed the methanol using evaporation in a fume hood for 24–48 h at room temperature. We next centrifuged extracts for 10 min at 15 °C, 4000 RCF to remove the remaining particulate matter, followed by storage at −20 °C. On the day of electrophysiological recording, we thawed the extracts and diluted them 1:50 in bath solution (see below), to equal 5 mg plant solid starting material per ml, immediately before use.
Wild-type and mutant Kv1 cDNAs were generated (Genscript, Piscataway, NJ) in the pTLNx expression vector. […]
(§1) We performed TEVC at room temperature using an OC-725C amplifier (Warner Instruments, Hamden, CT) and pClamp10 software (Molecular Devices, Sunnyvale, CA) 2 days after cRNA injection as described in the section above. […] We recorded currents in response to voltage pulses between −80 mV and +40 mV at 10 or 20 mV intervals from a holding potential of −80 mV, to yield current-voltage relationships and examine activation kinetics. To calculate the voltage dependence of activation (V0.5), tail currents were recorded at a voltage pulse of −50 mV immediately following prepulse voltages between −80 mV and +40 mV. […]

Kv1.1-E283K channels = molecular target: T3, Kv1.1-E283K channels (Homo sapiens, UniProt Q09470, E283K); test: TEVC of oocytes injected with 100% Kv1.1-E283K cRNA; format: cell-based; settings: compound 1 µM
T3 construct: expressed in transfected cells; host or cells: Xenopus laevis oocytes

Kv1.1-V408A channels = molecular target: T4, Kv1.1-V408A channels (Homo sapiens, UniProt Q09470, V408A); test: TEVC of oocytes expressing 100% Kv1.1-V408A; format: cell-based; settings: compound 1 µM
T4 construct: expressed in transfected cells; host or cells: Xenopus laevis oocytes
Text: (§2) EA1 mutant G311D is in the S4-5 linker of Kv1.1 (Fig. 5a) and produces a 65% prepulse current reduction both in Kv1.1-G311D and in Kv1.1/Kv1.1-G311D channels[43],[44]; either channel type was minimally responsive to the plant extracts tested (Supplementary Figs. 3 and 4). EA1 mutant L328V (which is associated with tetany and hypomagnesemia) is located in the intracellular end of Kv1.1 S5 (Fig. 5a) and results in complete current loss in a dominant negative manner, i.e., Kv1.1-L328V and Kv1.1/Kv1.1-L328V channels are each nonfunctional. The traditional ataxia remedy plant extracts were unable to rescue Kv1.1-L328V or Kv1.1/Kv1.1-L328V function (Supplementary Figs. 5 and 6). EA1 mutant V408A is in the intracellular-proximal end of Kv1.1 S6 (Fig. 5a) and reduces current, speeds deactivation, and increases C-type inactivation of Kv1.1[46]. Here, Native American ataxia remedy extracts had relatively minor effects on Kv1.1-V408A activity, with nettle and Pacific ninebark (roots or leaves) inducing hyperpolarizing shifts in EM, and Pacific ninebark leaves inducing a negative shift in the voltage dependence of activation, although this was not quantifiable due to the very small tail currents (Supplementary Fig. 7). Effects of the extracts on Kv1.1/Kv1.1-V408A activity were also relatively minor (Supplementary Fig. 8). […]
as §1, with “mV. We analyzed data using Clampfit (Molecular Devices) and Graphpad Prism software (GraphPad, San Diego, CA, USA), stating values as mean ± SEM.” for “mV.”

Kv1.1-L328V channels = molecular target: T5, Kv1.1-L328V channels (Homo sapiens, UniProt Q09470, L328V); test: TEVC of oocytes expressing 100% Kv1.1-L328V; format: cell-based; settings: compound 1 µM
T5 construct: expressed in transfected cells; host or cells: Xenopus laevis oocytes
Text: as §2
as §1, with “mV. We analyzed data using Clampfit (Molecular Devices) and Graphpad Prism software (GraphPad, San Diego, CA, USA), stating values as mean ± SEM.” for “mV.”

[2] = dose response, Fig. 4, read-out: EC50 for ΔV0.5activation

T1 sequence (Q09470 whole entry): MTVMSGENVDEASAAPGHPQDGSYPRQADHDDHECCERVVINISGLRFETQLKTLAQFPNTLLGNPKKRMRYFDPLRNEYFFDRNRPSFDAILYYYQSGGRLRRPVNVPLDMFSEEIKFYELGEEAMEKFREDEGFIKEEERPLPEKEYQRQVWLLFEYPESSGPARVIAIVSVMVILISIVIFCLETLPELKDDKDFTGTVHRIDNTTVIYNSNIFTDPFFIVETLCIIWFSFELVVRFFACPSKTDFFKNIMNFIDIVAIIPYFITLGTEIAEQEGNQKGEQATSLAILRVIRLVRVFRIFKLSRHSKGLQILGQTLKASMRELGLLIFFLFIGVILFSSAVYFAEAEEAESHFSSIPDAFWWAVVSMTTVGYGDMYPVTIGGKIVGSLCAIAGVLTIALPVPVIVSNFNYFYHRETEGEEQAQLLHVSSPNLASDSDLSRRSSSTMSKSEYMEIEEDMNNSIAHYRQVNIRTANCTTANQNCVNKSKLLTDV
T2 sequence (P16389 whole entry): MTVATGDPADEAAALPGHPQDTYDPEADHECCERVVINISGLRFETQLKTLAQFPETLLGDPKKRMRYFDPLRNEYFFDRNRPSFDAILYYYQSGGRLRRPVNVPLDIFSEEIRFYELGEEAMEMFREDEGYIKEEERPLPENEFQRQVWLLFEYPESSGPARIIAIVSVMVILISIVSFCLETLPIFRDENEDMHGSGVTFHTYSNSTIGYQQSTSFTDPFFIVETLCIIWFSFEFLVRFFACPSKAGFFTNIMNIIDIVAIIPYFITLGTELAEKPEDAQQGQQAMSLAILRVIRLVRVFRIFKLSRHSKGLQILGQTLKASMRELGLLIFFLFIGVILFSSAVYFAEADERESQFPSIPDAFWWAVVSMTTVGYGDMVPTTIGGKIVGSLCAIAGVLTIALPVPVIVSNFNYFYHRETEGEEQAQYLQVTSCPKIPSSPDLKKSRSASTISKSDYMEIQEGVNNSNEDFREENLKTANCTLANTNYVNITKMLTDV
T3 sequence (Q09470 whole entry E283K): as the sequence (Q09470 whole entry) above, with E283K counted along it
T4 sequence (Q09470 whole entry V408A): as the sequence (Q09470 whole entry) above, with V408A counted along it
T5 sequence (Q09470 whole entry L328V): as the sequence (Q09470 whole entry) above, with L328V counted along it

## O=c1c(O)c(-c2ccc(O)c(O)c2)oc2cc(O)cc(O)c12 [quercetin]
wild-type human Kv1.1
  effect on Kv1.1 activity: did not alter Kv1.1 activity
  EM (unclamped oocyte membrane potential): -43.50 ± 1.46 mV
  Slope: 6.00 ± 1.06 mV
  V0.5 Normalized tail current: -25.12 ± 1.81 mV

## C=C[C@@]1(C)C=C2CC[C@@H]3[C@](C)(CCC[C@@]3(C)C(=O)O)[C@H]2CC1 [Pimaric acid]
wild-type Kv1.1
  increase of wild-type Kv1.1 currents: up to eightfold

## C=CC(C)(O)CCC=C(C)C (stereo not shown) [linalool]
[1]
  time to peak levels in the blood: under 20 min

## O=c1c(O)c(-c2ccc(O)cc2)oc2cc(O)cc(O)c12 [kaempferol]
wild-type human Kv1.1
  effect on Kv1.1 activity: did not alter Kv1.1 activity
  EM (unclamped oocyte membrane potential): -45.25 ± 1.83 mV
  Slope: 8.68 ± 0.87 mV
  V0.5 Normalized tail current: -22.40 ± 0.84 mV

## O=C1CCC[C@@H]2[C@H]3CCC[N+]4([O-])CCC[C@@H](CN12)[C@@H]34 (stereo partly shown) [oxymatrine]
wild-type human Kv1.1
  effect on Kv1.1 activity: no effect
  EM (unclamped oocyte membrane potential): -39.88 ± 2.34 mV
  Slope: 8.73 ± 0.24 mV
  V0.5 Normalized tail current: -21.86 ± 0.64 mV

## C[C@@H]1O[C@@H](OC[C@H]2O[C@@H](Oc3c(-c4ccc(O)c(O)c4)oc4cc(O)cc(O)c4c3=O)[C@H](O)[C@@H](O)[C@@H]2O)[C@H](O)[C@H](O)[C@H]1O [rutin]
wild-type human Kv1.1
  effect on Kv1.1 activity: lesser but still robust opening effect
  EM (unclamped oocyte membrane potential): -56.75 ± 0.28 mV
  Slope: 11.79 ± 2.88 mV
  V0.5 Normalized tail current: -31.59 ± 3.22 mV
wild-type human Kv1.1; [2]
  EC50: 385 ± 12 nM
wild-type human Kv1.1; oocytes expressing wild-type Kv1.1, read-out: EC50 for hyperpolarization of EM
  EC50: 150 ± 38 nM
wild-type human Kv1.2; [2]
  EC50: 72 ± 16 nM
wild-type human Kv1.2; oocytes expressing Kv1.2, read-out: EC50 for hyperpolarization of EM
  EC50: 406 ± 62 nM
Kv1.1-E283K channels
  effect on channel activity: ineffective
Kv1.1-V408A channels
  effect on channel activity: ineffective
Kv1.1-L328V channels
  effect on channel activity: ineffective

## O=c1cccc2n1C[C@@H]1CNC[C@H]2C1 [cytisine]
wild-type human Kv1.1
  effect on Kv1.1 activity: did not alter Kv1.1 activity
  EM (unclamped oocyte membrane potential): -41.60 ± 1.77 mV
  Slope: 8.15 ± 1.31 mV
  V0.5 Normalized tail current: -23.96 ± 1.37 mV

## C=CC(C)(CCC=C(C)C)OC(C)=O (stereo not shown) [linalyl acetate]
[1]
  time to peak levels in the blood: under 20 min

## O.Oc1cc(O)c2c(c1)O[C@H](c1ccc(O)c(O)c1)[C@@H](O)C2 [catechin hydrate]
wild-type human Kv1.1
  effect on Kv1.1 activity: did not alter Kv1.1 activity
  EM (unclamped oocyte membrane potential): -31.33 ± 2.31 mV
  Slope: 5.83 ± 0.38 mV
  V0.5 Normalized tail current: -14.70 ± 0.44 mV
